Patent publication US10221162B2, “Triazole agonists of the APJ receptor” (priority 2015, dated 2019)

How the values were obtained:
[1] = system: naive Sprague Dawley rat hearts; assay: Langendorff isolated perfused rat heart (ex vivo contractility and relaxation); details: Langendorff apparatus, as a function of concentration
[2] = system: heart failure rat model; assay: In vivo cardiac contractility in heart failure (MI) rat model; details: heart failure rats, acute administration for 30 min, result in words
Method: Male Lewis rats (Charles River, USA) at 2-3 months of age were used for the study. […] APJ agonists were administered dose dependently acutely for a period of 30 min.
The interaction between […] (ACE2) and Apelin biology is complicated. To investigate the interaction between the Apelin-APJ and ACE signalling pathways, we examined the improvement in cardiac function with APJ small molecule agonists in the presence of ACE inhibitor captopril in heart failure rats in vivo.

In the case of `COc1cccc(OC)c1-n1c(NS(=O)(=O)[C@@H](C)[C@H](O)c2ncc(C)cn2)nnc1-c1cccc(C)n1` [Example 99.0, (1R,2S)-N-(4-(2,6-dimethoxyphenyl)-5-(6-methylpyridin-2-yl)-4H-1,2,4-triazol-3-yl)-1-hydroxy-1-(5-methylpyrimidin-2-yl)propane-2-sulfonamide], the “left ventricular dP/dtmax (load independent cardiac contractility)” value [1] is reported as “increases load independent cardiac contractility”, the “left ventricular dP/dtmin (load independent cardiac relaxation)” value [1] is reported as “increases load independent cardiac relaxation” and the “cardiac contractility as measured by dP/dt” value [2] is reported as “increase in cardiac contractility”.
